In ChEMBL document CHEMBL1142100, “Hypericin activates L-type Ca2+ channels in cardiac myocytes” (J Nat Prod, 2007):
The source made the active and inactive calls. No cut-off for these calls is given here.

Tests used:
Type in all cases: cell-based
Conditions in all cases: Cardiac atrium
[1] = system: Pelophylax lessonae; experiment: Decrease in cellular cGMP level in frog atrial myocytes at 4 uM by immunoassay; design: scale not given: the % may be the effect or the level left
[2] = system: Pelophylax lessonae; experiment: Inhibition of PP2A in frog atrial myocytes by microscystin assay
[3] = system: Pelophylax lessonae; experiment: Activity at L-type calcium channel in frog atrial myocytes assessed as increase in Sr2+ current
[4] = system: Pelophylax lessonae; experiment: Inhibition of NOS2 in frog atrial myocytes

Cc1cc(O)c2c(=O)c3c(O)cc(O)c4c5c(O)cc(O)c6c(=O)c7c(O)cc(C)c8c1c2c(c34)c(c78)c65
Activity [1]: 69%
Activity [2]: inactive
Activity [3]: Dose-dependent effect
Activity [4]: inactive
